{
  "source": "patent US9408828B2",
  "about": "“(+)-3′-angeloyloxy-4′-keto-3′,4′-dihydroseselin for treating inflammation” (Hong Kong Baptist University, priority 2014, dated 2016)",
  "key": {"[1]": {"system": "IL-1β", "assay": "Real-time PCR of IL-1β mRNA in LPS-stimulated RAW-Blue cells", "format": "cell-based, murine", "conditions": "LPS 1 μg/mL, 5, 10, 20 μg/mL, 20 hours", "method": "(§1) After macrophages are treated with 1 μg/mL of LPS in absence or presence various concentrations of Pd-Ib (5, 10, 20 μg/mL) for 20 hours, the mRNA levels of iNOS (A), TNF-α (B) and IL-1β (C) are determined by real time PCR, while the production of NO (D) is determined by Griess reagent. Data are derived from three independent experiments and presented as mean±SEM, “con” stands for the vehicle control group. ^#Compared with control group. *P<0.05, **P<0.01 and ***P<0.001 are compared with LPS-alone group.\n(§2) Raw-Blue cells are plated at 20×10^5 cells/well in 12-well plate. After 24 hours of incubation, cells are pretreated with various concentrations (5-20 μg/mL) of Pd-Ib for 2 hours, followed by co-culturing with LPS (1 μg/mL) for 20 hours. Total RNA of Raw-Blue cells is extracted by Trizol reagent. Two micrograms (2 μg) of total RNA are reverse-transcribed with RT master mix to obtain cDNA. Real-time PCR is performed in a ViiA7 real-time PCR instrument (Applied Biosystems, Life Technologies, CA, USA) with the SYBR Green kit. A melting curve analysis is carried out after amplification to verify the accuracy of the amplicon. The comparative cycle of threshold (ΔΔCT) method of relative quantification is used to determine the fold-change in expression. Primer sequences for mRNA analysis of IL-1β, TNF-α, iNOS and β-Actin are described in Table 1."}, "[2]": {"system": "Myeloperoxidase (MPO)", "assay": "Neutrophil infiltration in colon tissue (MPO assay)", "format": "in vivo, C57BL/6 mice", "conditions": "DSS-induced colitic mice, Pd-Ib treatment groups", "method": "Myeloperoxidase (MPO) is an enzyme mainly released by neutrophil, and its activity is directly associated with the severity of inflammation in a given tissue. In this example, MPO activity is measured as described in our previous study. Briefly, the colon tissues kept at −80° C. are weighed and homogenized in 0.5% hexadecyltrimethylammonium bromide 1 mL per 100 mg of colon tissue. The homogenates are centrifuged at 19 000 rpm at 4° C. for 15 min. Aliquots of 80 iL supernatant are mixed with 120 μL potassium phosphate buffer (50 mmol, pH 6.0) with 0.0005% o-dianisidine dihydrochloride and 0.1% hydrogen peroxide. Changes in optical density are measured at 460 nm at room temperature (25° C.). MPO activity is calculated from the rate of optical density changes and one unit of MPO activity is defined as the amount of enzyme present that produced a change in optical density of […] at 25° C. in the final reaction volume. The results are normalized to the wet weight of colon tissue and quantified as units/mg tissue.\nColitis is induced in all groups except the control group. Pd-Ib and sulfasalazine are administered to mice from day 6 to day 12. On day 13, the mice are sacrificed, and MPO activity is determined in colon homogenates. Data are expressed as mean±SEM, n=8 (*p<0.05, **p<0.01, ***p<0.001, compared with DSS model group)."}, "[3]": {"system": "iNOS", "assay": "Real-time PCR of iNOS mRNA in LPS-stimulated RAW-Blue cells", "format": "cell-based, murine", "conditions": "LPS 1 μg/mL, 5, 10, 20 μg/mL, 20 hours", "method": "as §1, §2"}, "[4]": {"system": "RAW-Blue cells", "assay": "Cell viability (MTT) assay", "format": "cell-based, murine", "conditions": "24 hours", "method": "Cells are cultured for 24 hours in the presence of Pd-Ib at the concentrations indicated, from 1.25-100 μg/mL. Cell viability is assessed using MTT assay. Data are derived from three independent experiments and presented as mean±SEM. “con” stands for the vehicle control group.\nCells (5×10^4) are cultured in 96-well plates for 24 hours. Then cells are cultured with various concentrations of Pd-Ib (1.25, 2.5, 5, 10, 20, 40, 80, 100 μg/mL) for 24 hours. After that, 10 μL of 5 mg/mL MTT is added to each well, and the cells are cultured in the dark for 3 hours. The medium is then discarded, and 100 μL of dimethyl sulfoxide (DMSO) is added into each well. After 15 min incubation, the optical density at 570 nm is read by using a micro-plate reader to determine the cell viability."}},
  "data": [
    {"smiles": "C/C=C(\\C)C(=O)OC1C(=O)c2c(ccc3ccc(=O)oc23)OC1(C)C", "note": "(single isomer, unassigned; (+)) [Pd-Ib, (+)-3′-Angeloyloxy-4′-keto-3′,4′-dihydroseselin]", "values": [
      {"measurement": "mRNA expression of IL-1β", "setting": "[1]", "result": "inhibit the mRNA expressions of TNF-α and IL-1β in a dose-dependent manner"},
      {"measurement": "MPO activity in colon", "setting": "[2]", "result": "suppresses MPO activity significantly"},
      {"measurement": "mRNA level of iNOS", "setting": "[3]", "result": "remarkedly inhibits the mRNA level of iNOS in a dose-dependent manner"},
      {"measurement": "cytotoxic effect", "setting": "[4]; 1.56 to 20 μg/mL", "result": "does not exhibit cytotoxic effect"},
      {"measurement": "cell viability", "setting": "[4]; 40, 80, and 100 μg/mL", "result": "cell viability is reduced"}
    ]}
  ]
}
